Source: US20060089263A1, “2-Propenal and related enal compounds for controlling plant pests and weeds in soil” (priority 2004, published 2006)

Legend:
Format in all cases: in vivo
[1] = test system: reniform nematode (Rotylenchulus reniformis); assay: Greenhouse nematicidal experiment, soil infested with reniform nematode; conditions: compared with 2-propenal
Text: (§1) The nematicidal properties of 2-propenal (CH2═CH—CHO; acrolein), 2-butenal (CH3—CH═CH—CHO; crotonaldehyde), and trans 2-pentenal (CH3—CH2—CH═CH—CHO) were studied in greenhouse experiments with soil severely infected with the reniform nematode (Rotylenchulus reniformis). The soil was collected from a cotton field and was a sandy loam with pH 6.2, organic matter content <1.0% and cation exchange capacity <10 meq/100 gms soil. The soil was mixed 50:50 by volume, with washed fine siliceous river sand and the mixture, here-from referred to as soil. The moist soil (50% field capacity) was apportioned in 1 Kg quantities contained in 4L polyethylene bags. The compounds were applied to the soil in the bags, and after thorough mixing the treated soil was transferred to 1 L capacity, 4-inch-diam. plastic (PVC) pots which were then covered with a polyethylene bag (1 mil) held tightly to the outside wall of the pot with a rubber band. The covered pots were placed on a greenhouse table and after 10 days the bags were removed and soil samples for nematode analyses were collected from each pot. The pots were planted with “Young” soybean (5 seed/pot.) Soybean plants were grown for 8 weeks when they were removed, soil samples taken for nematode analysis (salad bowl incubation technique), and data were collected on shoot height, and fresh weights of shoots and roots. The relative health of the root systems was determined using a subjective scale. […] Values between 1 and 5 represented intermediate degrees of damage. The roots were incubated to assess nematode populations in them.
(§2) Emulsifiable concentrates (EC's) were prepared for all three compounds containing 10% (w/w) emulsogen. The EC's were used to make aqueous emulsions containing 2.5% active ingredient; these emulsions were then used to deliver the compounds to soil. Each compound was delivered using the following rates: 0, 25, 50, 75, 100, 125, 150, 175, 200, 225, 250, 275, 300 mgs/kg soil. In every experiment there were 6 replications (pots) per treatment arranged in a randomized complete block design.
(§3) All data were analyzed according to standard procedures for analysis of variance. Fisher's Least Significant Differences (FLSD) were calculated when F values were significant and are included in the graphs. Curvilineal analyses were conducted according to standard procedures with the TableCurve 2D program.

[2] = test system: microbivorous nematodes; assay: Greenhouse nematicidal experiment, microbivorous nematodes in soil and roots; conditions: compared with 2-propenal
Text: as §1, §2, §3

[3] = test system: tomato plant; assay: Tomato plant growth study, vigor rating; parameters: key to TOMATO VIGOR 1-5SCALE: 1 = very little vigor, 5 = very vigorous; conditions: 350 lb ai/a
Text: This example together with the data in Table 1 includes results of a study conducted to test the affects of acrolein on tomato plant growth. The first column in Table 1 includes, from left to right the treatment number, the treatment name, the rate of application, and the unit for that rate. The treatment name includes two separate treatment ingredients for each treatment number. The top name of each treatment name lists the test additive, and the bottom listing of the treatment name lists any additional herbicide applied in that particular treatment number. For example, in treatment number 5, methyl bromide was applied with a sandea herbicide. The rate and the rate unit headings, for this study, lists the amount of application of the treatment ingredients in pounds of active ingredients per acre (lb ai/a). Column 2 of Table 1 lists a vigor rating for each tomato plant on a scale of 1 to 5, wherein a 1 rating indicates a tomato plant with very little vigor, and a 5 rating indicates a very vigorous tomato plant. Column 2 lists vigor scale ratings for each treatment number taken on Aug. 17, 2005, and column 3 lists a vigor rating for each treatment taken on Aug. 25, 2005.

| Compound | response patterns of nematodes to applications (reniform) [1] | response patterns of nematodes to applications (microbivorous) [2] | TOMATO VIGOR 1-5SCALE ([3]; 17/Aug/05, no herbicide) | TOMATO VIGOR 1-5SCALE ([3]; 17/Aug/05, no herbicide, listed as METHYL BROMIDE 2) | TOMATO VIGOR 1-5SCALE ([3]; 17/Aug/05, with SANDEA 0.25 lb ai/a) | TOMATO VIGOR 1-5SCALE ([3]; 17/Aug/05, with SANDEA 0.25 lb ai/a, listed as METHYL BROMIDE 2) | TOMATO VIGOR 1-5SCALE ([3]; 17/Aug/05, with V-10142 0.25 lb ai/a) | TOMATO VIGOR 1-5SCALE ([3]; 17/Aug/05, with V-10142 0.25 lb ai/a, listed as METHYL BROMIDE 2) | TOMATO VIGOR 1-5SCALE ([3]; 25/Aug/05, no herbicide) | TOMATO VIGOR 1-5SCALE ([3]; 25/Aug/05, with SANDEA 0.25 lb ai/a) | TOMATO VIGOR 1-5SCALE ([3]; 25/Aug/05, with SANDEA 0.25 lb ai/a, listed as METHYL BROMIDE 2) | TOMATO VIGOR 1-5SCALE ([3]; 25/Aug/05, with V-10142 0.25 lb ai/a) | TOMATO VIGOR 1-5SCALE ([3]; 25/Aug/05, with V-10142 0.25 lb ai/a, listed as METHYL BROMIDE 2) | change in vigor scale rating over the term of the test ([3]; no additional herbicide) |
| --- | --- | --- | --- | --- | --- | --- | --- | --- | --- | --- | --- | --- | --- | --- |
| CC/C=C/C=O [2-pentenal, trans-2-pentenal] | very similar to those described for 2-propenal | very similar to those described for 2-propenal |  |  |  |  |  |  |  |  |  |  |  |  |
| 2-butenal | very similar to those described for 2-propenal | very similar to those described for 2-propenal |  |  |  |  |  |  |  |  |  |  |  |  |
| CBr [METHYL BROMIDE 1, methyl bromide, reference compound] |  |  | 2.500 | 2.250 | 2.250 | 2.500 | 2.000 | 2.500 | 2.500 | 2.750 | 2.500 | 2.650 | 2.500 | no change |
